Values quoted from earlier work in US9808468B2, “Formulation of meloxicam” (ICEUTICA PTY LTD., priority 2014, dated 2017).

solubility in water: practically insoluble
Compound: Cc1cnc(NC(=O)C2=C(O)c3ccccc3S(=O)(=O)N2C)s1 [Meloxicam, 4-hydroxy-2-methyl-N-(5-methyl-2-thiazolyl)-2H-1,2-benzothiazine-3-carboxamide-1,1-dioxide]
